Assays:
Format in all cases: cell-based, human
[1] = system: caspase-7; assay: Western blotting of caspase-7 cleavage in HepG2 cells; details: HepG2, 17 hrs; M4N 80 μM, etoposide 20 μM, rapamycin 20 μM, UCN-01 5 μM
Method: (§1) The sample volumes were adjusted by the total protein amount. Protein assay was performed by Bio-Rad Protein Assay (Bio-Rad Laboratories, Inc. Hercules, Calif.). The samples were resolved by the standard SDS-polyacrylamide gel electrophoresis and transferred to nitrocellulose membrane (Amersham Biosciences, Bjorkgatan, Sweden). The membranes were blocked with skim milk, and incubated with primary antibodies at 4° C. overnight and then with secondary antibody conjugated with horse radish peroxidase at room temperature for 2 hrs. The signals were detected by western blot chemiluminescence reagent plus (New England Nuclear Life Science Products, Boston, Mass.).
The effect of the combination treatments on cell death and autophagy was examined in two cell lines other than LNCaP cells.

[2] = system: HIF1α; assay: Western blotting of HIF1α in LNCaP cells under hypoxia; details: M4N 80 μM
From the text: LNCaP human prostate cancer, DU145 human prostate cancer, PC3 human prostate cancer, MCF-7 human breast cancer, MDA-MB-231 human breast cancer, MDA-MB-468 human breast cancer, HT29 human colon cancer, K562 human myelogenous leukaemia, HepG2 human hepatoma, Hep3B human hepatoma, and LN229 human glioblastoma cancer cell lines were purchased from American Type Culture Collection (Manassas, Va.). OC24 human ascites ovarian cancer cell line was a generous gift from Dr. XXX (Johns Hopkins University, MD). LNCaP cell line was cultured in RPMI1640 medium supplemented with glucose (14 mM), pyruvate (1 mM), and fetal bovine serum (FBS) (10%). DU145 cell line was cultured in MEM supplemented with non-essential amino acids, glucose (21 mM), pyruvate (1 mM), and FBS (10%). PC3 cell line was cultured in F-12K medium supplemented with FBS (10%). MCF-7 cell line was cultured in DMEM supplemented with FBS (10%). OC24 cell line was cultured in RPMI1640 medium supplemented with FBS (10%) as suspension culture. MDA-MB-231 and 468 cell lines were cultured in Leibovitz's L15 medium supplemented with FBS (10%) under air. HT29 cell line was cultured in DMEM supplemented with glucose (25 mM) and FBS (10%). K562 cell line was cultured in RPMI1640 supplemented with FBS (10%). […] The signals were detected by western blot chemiluminescence reagent plus (New England Nuclear Life Science Products, Boston, Mass.). […]

[3] = system: LC3B-II; assay: Western blotting of LC3B-II (autophagy) in MCF-7 cells; details: MCF-7, 15 hrs; M4N 80 μM
Method: as §1, with “Mass.). The effect of […] on autophagy was examined using the western blotting for LC3B-II in the presence of Baflomycin A1 in MCF-7 and HepG2 cells (FIG. 4D).” for “Mass.).”

[4] = system: LC3B; assay: Immunocytochemistry of LC3B (autophagosomes) in LNCaP cells; details: 6 hrs, Baflomycin A1 (100 nM), control cells and cells under combination treatments, M4N 80 μM
From the text: […] After permeabilized by 0.2% Tryton X-100 and 1% goat serum diluted in PBS (−), the cells were blocked by PBS (−) containing 5% goat serum.

| Structure (SMILES) | caspase-7 cleavage product [1] | HIF1α expression ([2]; 6 hr exposure to hypoxia) | HIF1α expression ([2]; 18 hr exposure to hypoxia) | autophagy (LC3B-II in the presence of Baflomycin A1) [3] | net amount of autophagosomes (LC3B staining) [4] |
| --- | --- | --- | --- | --- | --- |
| CN[C@@H]1C[C@H]2O[C@@](C)([C@@H]1OC)n1c3ccccc3c3c4c(c5c6ccccc6n2c5c31)C(=O)N[C@H]4O [UCN-01, 7-hydroxystaurosporine] | great deal |  |  |  |  |
| COc1ccc(C[C@@H](C)[C@@H](C)Cc2ccc(OC)c(OC)c2)cc1OC [M4N, Tetra-O-methyl nordihyroguaiaretic acid] |  | did not have much effect | reduced HIF1α expression | blocks autophagy | reduced the net amount of autophagosomes |
